Here are results for 2 compounds from patent publication US20100256217A1, “ANTIVIRAL INHIBITION OF CASEIN KINASE II” (The Trustees of the University of Pennsylvania, priority 2006, published 2010).

Entries after “also recorded” stand apart in the source; their conditions may differ.

The test system of assay [1] is CK2-mediated phosphorylation of WNV C in Vero cells. The assay can be described thus: In vivo 32P labeling and immunoprecipitation of WNV C from transfected cells under DRB. In kind it is cell-based, African green monkey. Conditions: cells transfected with pcWNV C-His; DRB 100, 500 and 1000 μM; anti-His immunoprecipitation. The protocol: In vivo ^32P-Orthophosphate labeling and WNV C immunoprecipitation. In order to check whether Cp is phosphorylated in vivo also, Capsid-transfected cells were pulse-chased with […] and their lysates were analyzed for the detection of phosphorylated capsid proteins by Immunoprecipitation. HeLa cells were grown in DMEM medium supplemented with 10% FBS until they were subconfluent. The cells were transfected with WNV Cp constructs and DOTAP/DNA containing media were replaced after about 6-hours with media with/without […]. DBS was added to a final concentration of 0.1, 0.5 and 1.0 mM. The Control cells were treated with DMSO alone. Phospholabeling and immunoprecipitation of WNV CP were performed as described previously. […] WNV CP was precipitated with anti-His monoclonal antibody (Scil Diagnostics, Martinsried, Germany). […] The immunoprecipitated capsid proteins were eluted from the protein G-agarose by boiling them for 5 min and analyzed by SDS-PAGE, followed by autoradiography.
Subsequent to the identification and characterization of CK2-mediated phosphorylation of the rC in vitro, we wanted to study this phenomenon in vivo. […] The lysates from the matching controls that were not exposed to radioactivity, were analyzed separately for capsid expression. […]

Assay [2] deals with capsid-containing VLPs. The assay can be described thus: ELISA of capsid from culture fluid (secretion of capsid-containing VLPs). It is filed as cell-based. Conditions: DRB added to culture medium; anti-C ELISA. An excerpt: Quantification of the protein C in ELISA from the supernatants of transfected cells. The ability of unprocessed and truncated capsid proteins to participate in the budding was assed by ELISA from culture fluid of transfected cells. In 6 cm plates, the cells were transfected with full-length capsid (123 aa) or truncated capsid (105 aa) or C(S36A) plasmids or in combination with WNV M and E-expressing constructs. Forty eight hours post-transfection, the supernatants were collected and analyzed for viral budding. One hundred microliters of supernatants were plated in triplicate, in a serial dilution series (dilutions in carbonate bicarbonate buffer) on a high protein binding EIA/RIA 96 well plate (Costar) and incubated at 4° C. overnight. In addition to the supernatants from experimental samples, a mock-transfected and untransfected media control is also added to the assay samples. Moreover, a series of wells are used as negative controls for the assay in that no supernatant is added to these wells only carbonate bicarbonate buffer. After 3 washes with PBS, nonspecific binding sites are blocked with 3% BSA in PBS solution, for 2 hours at room temperature. […] The reaction is terminated by adding 4N H2SO4 and protein levels are measured using an ELISA reader (Molecular Diagnostics) at 450 nm. […]
Background: An ELISA detects its analyte on a solid surface through an enzyme-linked reagent.

Assay [3] has as its system WNV. The assay can be described thus: WNV release from infected 293 cells, ELISA with anti-E antibody. In kind it is cell-based, West Nile virus. Conditions: 4 MOI, 48 h post infection. An excerpt: FIG. 6 includes panels A and B. Both reduced CK2 activity and depletion of CK2 transcripts affects viral release. FIG. 6 panel A: Depletion of CK2 transcripts reduced viral replication. As described earlier, the cells were transfected with full-length infectious clone along with siRNA-CK2α and siRNA-CK2β molecules. Lane 1 depicts the amount of viral release from the plates that were not treated with any of siRNA molecules. […] FIG. 6 panel B: Effect of cell-permeable CK2-inhibitor on viral release. 293 cells were infected with infectious WNV samples, propagated from an infectious clone of WNV.
In the context of whole virus, we examined whether inhibition of cellular CK2 affects WN viral release. We generated high titer of viral sample from Vero cells transfected with full length infectious clone (Pierson et al 2005). We harvested culture fluid at regular intervals, determined viral titre by routine Plaque assays and used them for infection assays. […] Forty-eight hours post infection, viral release was monitored by both plaque assays as well as ELISAs measuring the presence of […] using monoclonal anti E antibody. FIG. 6B depicts the release of viral molecules from WNV-infected cells as measured by ELISA using anti-E antibody. […] While the inhibition of cellular CK2 activity results in the reduced viral load, it is presumable that depletion of CK2 transcripts also could cause similar effect. In order to test this, in the second approach, WNV release was evaluated under the conditions where expression of CK2 subunits was knocked out. Cellular CK2 was knocked out by using siRNA molecules that specifically target CK2α and CK2β transcripts. siRNA-CK2α and siRNA-CK2β molecules were used to deplete cellular transcripts of CK2. 293 cells were infected with infectious WNV followed by the treatment with either siRNA control molecules or siRNA-CK2α or siRNA-CK2β molecules. Release of WNV was monitored from these plates. […] We also observed severe impairment of capsid phosphorylation in the pulse-chase studies under the influence of siRNA molecules.

Assay [4] concerns WNV. In words: WNV titers by plaque assay on Vero cells. It is filed as cell-based, West Nile virus. Conditions: DRB at different doses (FIG. 7B). As to the method:
The inhibited level of viral release indicates the siRNA-CK2 mediated effects are statistically significant.
Virus titration by plaque assay. Virus production was titered by plaque assays using Vero cells. For routine analysis, cells were seeded in 6-well (6×10^5 cells/well) or 12-well (3×10^5 cells/well) plates in -MEM with 10% FBS for 3 h at 37° C. Medium was removed, serial dilutions of virus supernatants in -MEM with 2% FBS were added (0.30 ml/well for 6-well plates and 0.15 ml/well for 12-well plates), and the cells were incubated for 2 h at 37° C. […] Virus concentrations are determined as PFU per milliliter.
In the context of whole virus, we examined whether inhibition of cellular CK2 affects WN viral release. […] We harvested culture fluid at regular intervals, determined viral titre by routine Plaque assays and used them for infection assays. […] Forty-eight hours post infection, viral release was monitored by both plaque assays as well as ELISAs measuring the presence of […] using monoclonal anti E antibody. FIG. 6B depicts the release of viral molecules from WNV-infected cells as measured by ELISA using anti-E antibody. […] In order to test this, in the second approach, WNV release was evaluated under the conditions where expression of CK2 subunits was knocked out. […] Release of WNV was monitored from these plates. […]

Assay [5] has as its target T1, recombinant CK2 (Homo sapiens, UniProt P68400).
T1 construct: purchased Biomol Research Laboratories (Plymouth Meeting, Pa.)
In words: In vitro CK2 kinase assay with recombinant WNV C as substrate. In kind it is biochemical. Conditions: 32P-ATP or 32P-GTP as donor; autoradiography. As to the method: In vitro protein kinase assays. In vitro phosphorylation assays were routinely done with the recombinant Cp proteins with the recombinant CK2 (Biomol, Pa.) in a 20 μl-reaction volume. Reaction mixtures (20 μL) contained 25 mM Hepes, pH 7.4, 2 mM MnCl2 or 5 mM MgCl2, 1.6 μCi of -^32P-GTP or […] (Amersham Pharmacia Biotech), and 0.5 to 1 μg of purified His-tagged WNV Cp as a substrate. Histone 1B (Calbiochem) protein was used as positive control. The phosphorylation reaction was started by the addition of ^32P-ATP or ^32P-GTP and the reaction was carried out for 30 min at 30 C. The kinase assays were arrested by the addition of 20 μl of SDS-sample buffer and the reaction mixtures were boiled for five minutes. Phosphorylated proteins were separated in SDS PAGE and proteins ere visualized by autoradiography.
Purified rC fractions from E. coli cells (M15[pREP4+pQE-WNV C]) were subjected to subsequent kinase assays. Using purified CK2 enzyme, in vitro assay was performed with ^32P-ATP as a phosphate donor to examine possible role of CK2 in the phosphorylation of WNV C. […] CK2 is unique among protein kinases in its ability to use both ATP and GTP as phosphoryl group donors. Another biochemical property of CK2 that makes it different from other kinases is its high sensitivity to inhibition by heparin.

T1 sequence (P68400 whole entry): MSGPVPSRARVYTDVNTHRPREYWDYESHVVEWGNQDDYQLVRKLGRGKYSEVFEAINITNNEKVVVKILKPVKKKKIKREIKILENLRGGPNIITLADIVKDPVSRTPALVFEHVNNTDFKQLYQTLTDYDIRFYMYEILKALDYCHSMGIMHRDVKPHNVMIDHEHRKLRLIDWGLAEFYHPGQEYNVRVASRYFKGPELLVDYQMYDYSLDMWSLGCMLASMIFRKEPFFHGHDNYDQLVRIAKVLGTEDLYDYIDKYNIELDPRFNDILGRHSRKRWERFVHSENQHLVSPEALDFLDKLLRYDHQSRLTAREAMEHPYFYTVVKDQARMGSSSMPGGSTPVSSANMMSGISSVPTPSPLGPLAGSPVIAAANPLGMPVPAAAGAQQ
T1 sequence (P67870 whole entry partner): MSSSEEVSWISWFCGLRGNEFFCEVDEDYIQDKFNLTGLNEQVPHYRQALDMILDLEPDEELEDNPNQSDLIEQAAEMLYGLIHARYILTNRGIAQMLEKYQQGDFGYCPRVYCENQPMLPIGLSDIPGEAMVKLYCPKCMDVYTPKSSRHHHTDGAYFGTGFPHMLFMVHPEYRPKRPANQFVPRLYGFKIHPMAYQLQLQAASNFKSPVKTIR

For `OC[C@H]1O[C@@H](n2cnc3cc(Cl)c(Cl)cc32)[C@H](O)[C@@H]1O` [DRB, 5,6-Dichloro-1-b-D-ribofuranosylbenzimidazole], the “in vivo phosphorylation of WNV C” value in assay [1] is on record as “severely inhibited; also recorded: specifically blocks the phosphorylation of capsid; also recorded: adversely inhibited”. In addition, the “level of capsid in the culture fluid” value in assay [2] was “significantly reduced the level of capsid from the culture fluid”. Further, the values for the viral release result in assay [3] (DRB 5 uM), in assay [3] (DRB 10 uM) and in assay [3] (DRB 50 uM) were “significantly reduces viral release”, “reduced by almost one fold” and “completely effective at blocking viral release”, respectively. The “WNV replication and release into culture medium by plaque assay” value in assay [4] is “dose dependent”.
As to heparin, in assay [5], the “heparin concentration at which the ability of CK2 to phosphorylate C was adversely affected” value is reported as “above 10 uM” and the “phosphorylation of C by CK2 in vitro” value was “severely inhibited; also recorded: severely impaired in a dose dependent manner”.
